From patent US9181196B2, “Pharmaceutical compounds” (KEMOTECH S.r.l., priority 2013, dated 2015)

Assays:
FGF-2 = FGF-2 (Homo sapiens, UniProt P09038); assay: Competition with biotinylated TS3R domain for binding to immobilized FGF-2 (DELFIA); details: for % TS3R/FGF-2 binding vs. control: control = 100% binding, average of 3 experiments
Source text: For the evaluation of the binding of the compounds of the invention to FGF-2, the test described in G. Colombo et al. J. Biol. Chem., 285: 8733, 2010 has been used. In this reference the binding test has been used to assay the binding of compound sm27 to FGF-2. Specifically, the test allows to evaluate the capability of the compounds under examination to compete with the biotinylated TS3R domain (the recombinant part of Thrombospondine 1 (TSP-1) containing the bond sequence for FGF-2), for the binding to FGF-2 immobilized on a plastic support.
In detail, FGF-2 (0.1 μg) has been immobilized on 96 well plates (DELFIA microtitration plates, Perkin Elmer) leaving into contact for one night at 4° C. by using known techniques. After saturation of the non specific sites with 1% BSA, the compounds to be tested and then the biotinylated TS3R domain (10 nM) in PBS 1% BSA were added. After a period of incubation of 3 hours, the plate was washed and treated with Eu-Labeled Streptavidin 1:1000 and incubated again for one further hour. The amount of TS3R bound to FGF was determined with DELFIA Enhancement Solution, measuring the resolved fluorescence (Victor, PerkinElmer).
The test was carried out on the compounds of examples 2, 4, 8, 10 and 12. The used concentrations were respectively of 10 and 100 μM. The obtained results are reported in Table 1 and have been expressed as inhibition percentage of the TS3R/FGF-2 binding induced by the compounds of the invention vs. the control (TS3R/FGF-2 binding in the absence of the compounds of the invention). As a reference compound sm27 was used and assayed at a concentration of 100 μM. […] The compounds of the invention in this test are as effective as sm27 at the assayed dose of 100 μM.
By using the test in vitro described in example 17 the binding to FGF-2 of the compounds (2p) and (2r) having the formulas herein below reported, has been assayed. These compounds are disclosed by G. A. Pinna et al. on Il Farmaco 58 (2003) 749-763.

[1] = system: Aorta sections (angiogenesis induced by FGF-2); assay: Angiogenesis test ex vivo (aorta section), FGF-2 induced sprouting in Matrigel; assay type: cell-based, C57BL/6 mice; details: for Sprouting area (% vs. control): FGF-2 30 ng/ml, eleven days, control = 100%
Experimental: Aorta sections (aorta rings of about 1 mm) taken from C57BL/6 mice, are dipped in a Matrigel gel (BD Biosciences), in 96 well plates, in DMEM 5% FCS containing FGF-2 (30 ng/ml) together with the compounds of the invention at concentrations in the range indicated herein below. By using an inverted microscope (IX70; Olympus) after some days it is observed in the plate the formation of a network of capillary structures irradiating from the aorta section. Images were taken and analyzed by ImageJ 1.41. After eleven days from the beginning of the experiment the angiogenic response is quantified as sprouting area, therefore subtracting the area of the aorta section.
The compounds of the examples 2, 4 and 10 and, as a reference, the reference compound sm27 at concentrations comprised between 50 and 100 μM were used. In Table 4 the results are reported, expressed as a percent variation (decrease) of the sprouting area with respect to that of the control (presence of FGF-2 only).
In FIG. 1 the aorta sections are reported, analyzed after eleven days in absence (left photo—(a)) or in the presence (right photo (b)) of the compound obtained in example 10 (concentration 100 μM). […]

BAEC cells [2] = assay: Inhibition of the proliferation of endothelial cells induced by FGF-2 (Crystal Violet); assay type: cell-based, Bovine; details: Table 6; 100 μM; expressed as in Table 2; average of 3 experiments
[3] = molecular target: T1, FGF-2 binding to BAEC cells (Bovine Aortic Endothelial Cells) (Homo sapiens, UniProt P09038); assay: Inhibition of the binding of europium-labelled FGF-2 to endothelial cells; assay type: cell-based; details: 100 μM; control = 100% binding; average of 3 experiments
T1 construct: host or cells: added exogenously to BAEC (Bovine Aortic Endothelial Cells)
T1 sequence (P09038 143-288): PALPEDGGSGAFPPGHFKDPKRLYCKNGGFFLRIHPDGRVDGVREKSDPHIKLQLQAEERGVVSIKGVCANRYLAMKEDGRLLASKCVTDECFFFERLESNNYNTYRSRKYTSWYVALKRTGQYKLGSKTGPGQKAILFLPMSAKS
Experimental: Sub-confluent BAEC cells (Bovine Aortic Endothelial Cells), in 96 well plates, were incubated with DMEM without serum for 30 minutes at 4° C. The compound of the invention to be assayed and FGF-2, labelled with europium (FGF-Eu, 10 ng/ml), were added in DMEM containing 0.15% gelatine and HEPES 25 mM. The plate was incubated for 2 hours at 4° C. After washings with cold medium, the amount of FGF-Eu bound to the cells was determined with DELFIA Enhancement Solution by measuring the time resolved fluorescence (Victor, PerkinElmer).
The compounds obtained in examples 2, 4, 8 and 10 were used at a concentration of 100 μM. As a reference the compound sm27 was used. The obtained results are reported in Table 2 and are expressed as inhibition percentage of the FGF-2 binding to endothelial cells induced by the compounds of the invention and by sm27 vs. the control (FGF-2 bond to endothelial cells in absence of inhibition). The value obtained with the control was assumed as 100% binding.
Example 18 has been repeated by using the two compounds of the prior art (2p) and (2r).

BAEC cells [4] = assay: Inhibition of the proliferation of endothelial cells induced by FGF-2 (Crystal Violet); assay type: cell-based, Bovine; details: FGF-2 5 ng/ml, 72 h
Experimental: BAEC cells (25000/ml) in DMEM 1.5% FCS were sown in 96 well plates. After 24 h the culture medium was substituted with DMEM 0.5% FCS containing the compounds of the invention at different concentrations in the range indicated herein below, and FGF-2 (5 ng/ml) or 10% FCS, added as stimulator of the cellular proliferation. After 72 h of incubation, the cells were fixed and stained with Crystal Violet, (Sigma). The stain was then eluted by using a solution 1:1 of ethanol and sodium citrate 0.1M and the absorption of the solution determined at the wave length of 540 nm.
In this test the compounds of examples 2, 4, 8 and 10 were used. For each compound several concentrations comprised between 10 and 100 μM were prepared. The obtained results are reported in Table 3 and have been given as percent reduction of the cellular proliferation of endothelial cells in the presence of FGF-2, induced by the compounds of the invention, with respect to the control (proliferation in the presence of FGF-2 only).

FGF-2, sequence (P09038 143-288, species assumed): as the sequence (P09038 143-288) above

SMILES | % TS3R/FGF-2 binding vs. control (FGF-2; 100 μM) [%] | Inhibition of the FGF-2 binding to endothelial cells (% binding FGF-2/endothelial cells vs. control) [3] [%] | % TS3R/FGF-2 binding vs. control (FGF-2; 10 μM) [%] | Binding to FGF-2 / inhibition of TS3R/FGF-2 binding, in words (FGF-2; 100 μM) | Inhibition of the angiogenesis induced by FGF-2 (aorta ring), in words [1] | Sprouting area (% vs. control) ([1]; 100 μM) [%] | Cell proliferation (% vs. control) (BAEC cells [2]) [%] | Cell proliferation (% vs. control) (BAEC cells [4]; 100 μM) [%] | Cell proliferation (% vs. control) (BAEC cells [4]; 10 μM, control = 100%) [%] | Cell proliferation (% vs. control) (BAEC cells [4]; 50 μM, control = 100%) [%] | Sprouting area (% vs. control) ([1]; 50 μM) [%] | Sprouting area (% vs. control) ([1]; 75 μM) [%]
CN(CCCNC(=O)c1nn(-c2ccc(Cl)cc2Cl)c2c1Cc1ccccc1-2)CCCNC(=O)c1nn(-c2ccc(Cl)cc2Cl)c2c1Cc1ccccc1-2 [Compound (2r), reference compound] | 98 ± 6 | – | – | do not show any significant binding to FGF-2 | do not result active in inhibiting the angiogenesis induced by FGF-2 | 91.1 ± 6 | 94 ± 6 | – | – | – | – | –
CN(CCCNC(=O)c1nn(-c2ccccc2)c2c1Cc1ccccc1-2)CCCNC(=O)c1nn(-c2ccccc2)c2c1Cc1ccccc1-2 [Compound (2p), reference compound] | 96 ± 3 | – | – | do not show any significant binding to FGF-2 | do not result active in inhibiting the angiogenesis induced by FGF-2 | 95.5 ± 5 | 97 ± 4 | – | – | – | – | –
Cc1ccc(Cn2nc(C(=O)NCCCCCCNC(=O)c3nn(Cc4ccc(C)cc4)c4c3Cc3cc(S(=O)(=O)O)sc3-4)c3c2-c2sc(S(=O)(=O)O)cc2C3)cc1 [Example 8, 3,3′-(hexane-1,6-diylbis(azanediyl))bis(oxomethylene)bis(1-(4-methylbenzyl)-1,4-dihydro-thieno[3′,2′:4,5]cyclopenta[1,2-c]pyrazole-6-sulfonic acid)] | 25 ± 4 | 28 ± 4 | 61 ± 5 | – | – | – | – | 36 ± 5 | 95 ± 2 | 80 ± 4 | – | –

Second part, led by results:

% TS3R/FGF-2 binding vs. control (FGF-2; 100 μM) [%] | Inhibition of the FGF-2 binding to endothelial cells (% binding FGF-2/endothelial cells vs. control) [3] [%] | % TS3R/FGF-2 binding vs. control (FGF-2; 10 μM) [%] | SMILES | Binding to FGF-2 / inhibition of TS3R/FGF-2 binding, in words (FGF-2; 100 μM) | Inhibition of the angiogenesis induced by FGF-2 (aorta ring), in words [1] | Sprouting area (% vs. control) ([1]; 100 μM) [%] | Cell proliferation (% vs. control) (BAEC cells [2]) [%] | Cell proliferation (% vs. control) (BAEC cells [4]; 100 μM) [%] | Cell proliferation (% vs. control) (BAEC cells [4]; 10 μM, control = 100%) [%] | Cell proliferation (% vs. control) (BAEC cells [4]; 50 μM, control = 100%) [%] | Sprouting area (% vs. control) ([1]; 50 μM) [%] | Sprouting area (% vs. control) ([1]; 75 μM) [%]
17 ± 5 | 40 ± 2 | – | O=C(Nc1ccc2cc(S(=O)(=O)O)cc(O)c2c1)Nc1ccc2cc(S(=O)(=O)O)cc(O)c2c1 [sm27, reference compound] | – | – | 44.0 ± 8 | – | 60 ± 6 | – | – | – | –
13 ± 3 | 22 ± 3 | 25 ± 3 | O=C(NCCCNC(=O)c1nn(-c2ccc(Cl)cc2Cl)c2c1Cc1cc(S(=O)(=O)O)sc1-2)c1nn(-c2ccc(Cl)cc2Cl)c2c1Cc1cc(S(=O)(=O)O)sc1-2 [Example 2, 3,3′-(propane-1,3-diylbis(azanediyl))bis(oxomethylene)bis(1-(2,4-dichlorophenyl)-1,4-dihydro-thieno[3′,2′:4,5]cyclopenta[1,2-c]pyrazole-6-sulfonic acid)] | – | – | 1.8 ± 0.7 | – | 8 ± 3 | 90 ± 3 | 20 ± 4 | 43.9 ± 9 | 10.5 ± 5
20 ± 1 | 30 ± 3 | 40 ± 2 | O=C(NCCCCCCNC(=O)c1nn(-c2ccc(Cl)cc2Cl)c2c1Cc1cc(S(=O)(=O)O)sc1-2)c1nn(-c2ccc(Cl)cc2Cl)c2c1Cc1cc(S(=O)(=O)O)sc1-2 [Example 4, 3,3′-(hexane-1,6-diylbis(azanediyl))bis(oxomethylene)bis(1-(2,4-dichlorophenyl)-1,4-dihydro-thieno[3′,2′:4,5]cyclopenta[1,2-c]pyrazole-6-sulfonic acid)] | – | – | 15.8 ± 4 | – | 30 ± 7 | 92 ± 4 | 70 ± 6 | – | 21.0 ± 5
